This note sets out measurements from ChEMBL document CHEMBL4382239, “Pharmaceutical significance of azepane based motifs for drug discovery: A critical review” (Eur J Med Chem, 2019).

Values after ≈ are worked out from the molar mass of the structure shown.

Assay [1] concerns Staphylococcus aureus. Briefly: Antibacterial activity against Staphylococcus aureus. It is filed as functional.
The test system of assay [2] is HT-29. Briefly: Cytotoxicity against human HT-29 cells. Format: functional.
Assay [3] relates to MCF7. Briefly: Cytotoxicity against human MCF7 cells. Format: functional.
Assay [4] has as its system HCT-116. Briefly: Cytotoxicity against human HCT116 cells. It is filed as functional.
Assay [5] deals with T1, Beta-galactosidase (Aspergillus oryzae, UniProt B7VU80).
T1 sequence (B7VU80 whole entry): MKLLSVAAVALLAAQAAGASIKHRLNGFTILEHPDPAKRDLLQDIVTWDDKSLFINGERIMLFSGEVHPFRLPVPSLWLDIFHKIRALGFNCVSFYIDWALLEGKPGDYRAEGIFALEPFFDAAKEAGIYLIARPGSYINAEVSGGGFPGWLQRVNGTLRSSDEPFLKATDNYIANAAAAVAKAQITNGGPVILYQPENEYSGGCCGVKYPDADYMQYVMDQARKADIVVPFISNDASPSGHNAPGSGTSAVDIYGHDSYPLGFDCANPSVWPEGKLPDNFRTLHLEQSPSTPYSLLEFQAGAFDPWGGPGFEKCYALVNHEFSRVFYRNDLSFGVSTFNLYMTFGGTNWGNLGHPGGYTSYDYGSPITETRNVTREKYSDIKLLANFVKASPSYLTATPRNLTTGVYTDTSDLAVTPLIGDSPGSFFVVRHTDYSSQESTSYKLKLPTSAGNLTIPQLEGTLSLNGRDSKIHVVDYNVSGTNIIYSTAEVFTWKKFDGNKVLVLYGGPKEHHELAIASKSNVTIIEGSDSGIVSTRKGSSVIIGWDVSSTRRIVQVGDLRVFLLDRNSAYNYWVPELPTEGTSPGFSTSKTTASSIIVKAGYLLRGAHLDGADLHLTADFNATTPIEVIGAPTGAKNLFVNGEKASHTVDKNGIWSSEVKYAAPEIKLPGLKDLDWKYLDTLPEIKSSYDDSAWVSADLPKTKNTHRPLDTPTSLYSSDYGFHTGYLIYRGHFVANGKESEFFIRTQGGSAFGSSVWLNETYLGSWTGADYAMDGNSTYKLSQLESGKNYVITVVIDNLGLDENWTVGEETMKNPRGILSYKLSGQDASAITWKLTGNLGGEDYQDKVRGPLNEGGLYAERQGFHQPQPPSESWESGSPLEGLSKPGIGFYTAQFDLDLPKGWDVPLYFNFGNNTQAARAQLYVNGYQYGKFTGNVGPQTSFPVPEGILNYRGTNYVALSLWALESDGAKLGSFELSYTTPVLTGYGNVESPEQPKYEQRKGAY
Briefly: Inhibition of Aspergillus oryzae beta-galactosidase.

Assay [6] is described as follows: Inhibition of 6His-tagged Mycobacterium tuberculosis inorganic pyrophosphatase using tetrasodium PPi as substrate after 8 mins by malachite green dye-based colorimetric analysis.
A short description of assay [7]: Competitive inhibition of bovine epididymis alpha-L-fucosidase. Also noted: species or system Bos taurus.
The species entered for assay [8] is Bos taurus. Briefly: Competitive inhibition of bovine epididymis alpha-L-fucosidase at 1 mM relative to control.
In assay [9] the target is T2, Beta-galactosidase (Homo sapiens, UniProt P16278).
T2 sequence (P16278 whole entry): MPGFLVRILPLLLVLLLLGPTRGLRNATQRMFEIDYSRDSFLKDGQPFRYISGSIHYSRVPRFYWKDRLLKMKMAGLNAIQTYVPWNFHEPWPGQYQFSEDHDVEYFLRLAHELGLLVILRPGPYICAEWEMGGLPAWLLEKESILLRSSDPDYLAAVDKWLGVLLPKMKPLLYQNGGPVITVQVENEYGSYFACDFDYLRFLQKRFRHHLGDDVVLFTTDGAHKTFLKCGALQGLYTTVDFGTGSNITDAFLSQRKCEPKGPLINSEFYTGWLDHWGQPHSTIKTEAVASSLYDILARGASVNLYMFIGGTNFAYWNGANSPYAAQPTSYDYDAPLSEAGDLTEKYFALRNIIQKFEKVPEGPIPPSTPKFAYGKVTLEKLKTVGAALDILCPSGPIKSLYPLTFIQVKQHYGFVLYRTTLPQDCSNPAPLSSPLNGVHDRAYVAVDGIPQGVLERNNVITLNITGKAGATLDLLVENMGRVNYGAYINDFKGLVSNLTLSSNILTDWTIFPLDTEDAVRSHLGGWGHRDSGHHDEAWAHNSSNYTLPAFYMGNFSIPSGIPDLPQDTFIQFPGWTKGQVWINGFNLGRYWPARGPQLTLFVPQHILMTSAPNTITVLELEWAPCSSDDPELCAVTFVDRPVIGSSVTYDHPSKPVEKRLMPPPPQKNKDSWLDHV
Briefly: Inhibition of beta-galactosidase (unknown origin).

For assay [10], the target named is Alpha-galactosidase (Coffea arabica, UniProt Q42656). Briefly: Inhibition of green coffee bean alpha-galactosidase.
Assay [11] has as its system Rattus norvegicus. Briefly: Anticonvulsant activity in Wistar rat assessed as protection against MES-induced seizures at 15 mg/kg dosed via gastric tube. Format: functional.
The nature of assay [12]: Competitive inhibition of almond beta-glucosidase. Also noted: species or system Prunus dulcis.
In assay [13] the test system is Prunus dulcis. Briefly: Competitive inhibition of almond beta-glucosidase at 1 mM relative to control.
The subject of assay [14] is Salmonella typhi. Briefly: Antibacterial activity against […] incubated for 16 to 18 hrs by serial plate dilution method. It is filed as functional, Salmonella enterica subsp. enterica serovar Typhi. The note with it: Salmonella enterica.
Assay [15] concerns Pseudomonas aeruginosa. Briefly: Antibacterial activity against Pseudomonas aeruginosa incubated for 16 to 18 hrs by serial plate dilution method. It is filed as functional.
Assay [16] concerns Escherichia coli. Briefly: Antibacterial activity against Escherichia coli DH52 incubated for 16 to 18 hrs by serial plate dilution method. It is filed as functional.
For assay [17], the system named is Shigella dysenteriae. Briefly: Antibacterial activity against Shigella dysenteriae incubated for 16 to 18 hrs by serial plate dilution method. Format: functional.
Assay [18] deals with Staphylococcus aureus. Briefly: Antibacterial activity against Staphylococcus aureus ATCC 25923 incubated for 16 to 18 hrs by serial plate dilution method. Format: functional.
For assay [19], the system named is Micrococcus luteus. Briefly: Antibacterial activity against Micrococcus luteus ATCC 4698 incubated for 16 to 18 hrs by serial plate dilution method. It is filed as functional.
Assay [20] concerns Bacillus subtilis. Briefly: Antibacterial activity against Bacillus subtilis incubated for 16 to 18 hrs by serial plate dilution method. It is filed as functional.
The target of assay [21] is Protein farnesyltransferase (Homo sapiens, UniProt P49354+P49356). Briefly: Inhibition of human recombinant FTase using [3H]FPP as substrate after 15 mins by scintillation counting analysis. It is filed as protein-complex assay.

Chain of Alpha-galactosidase (Q42656 whole entry): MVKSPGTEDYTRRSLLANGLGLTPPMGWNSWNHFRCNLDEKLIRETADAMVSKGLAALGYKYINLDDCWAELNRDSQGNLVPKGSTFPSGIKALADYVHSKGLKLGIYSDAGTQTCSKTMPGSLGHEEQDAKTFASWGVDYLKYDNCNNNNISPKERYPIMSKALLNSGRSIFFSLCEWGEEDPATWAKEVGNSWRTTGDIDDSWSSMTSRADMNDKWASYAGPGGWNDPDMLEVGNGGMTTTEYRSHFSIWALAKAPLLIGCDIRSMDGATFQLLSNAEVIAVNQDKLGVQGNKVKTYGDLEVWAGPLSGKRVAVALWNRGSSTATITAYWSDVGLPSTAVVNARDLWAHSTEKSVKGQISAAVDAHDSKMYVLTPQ

Turning to `NC[C@H]1O[C@H](OC2C[C@H](CO)NCC[C@@H]2N)[C@H](N)[C@@H](O)[C@@H]1O` (stereo partly drawn), in assay [1], 64 µg/mL (≈ 200 µM) was the least that counted as inhibitory (MIC).
Regarding `CC(C)O[C@H]1[C@H](OC(C)C)[C@H](O)CN(Cc2ccc(OCCCOc3ccc(CN4C[C@@H](O)[C@@H](OC(C)C)[C@H](OC(C)C)[C@H](O)C4)cc3)cc2)C[C@H]1O`, the 50% growth inhibitory concentration (GI50) in assay [2] is 23 µM; in assay [3], 24 µM; in assay [4], 6 µM.
In assay [5], `O=C(O)C[C@H]1NC[C@@H](O)[C@H](O)[C@H](O)[C@H]1O` displayed an IC50 of 21 µM.
In assay [6], `CN(C)c1nc(-c2cccn2-c2ccccc2)nc(N(C)C)n1` returned a concentration for half-maximal inhibition (IC50) of 540 µM.
In assay [7], `O=C(O)[C@H]1CNC[C@@H](O)[C@H](O)[C@H]1O` showed a Ki of 41 µM. In assay [8], this molecule had an inhibition of 99%.
In assay [1], `NC[C@H]1O[C@H](O[C@H]2C[C@H](CO)NCC[C@H]2N)[C@H](N)[C@@H](O)[C@@H]1O` gave an MIC of 32 µg/mL (≈ 99.9 µM).
For the molecule `c1ccc(-n2cccc2-c2nc(N3CC3)nc(N3CC3)n2)cc1`, the IC50 in assay [6] amounted to 130 µM.
Regarding `CCCCN(CCCC)c1nc(-c2cccn2CCc2ccccc2)nc(N2CCCCCC2)n1`, the 50% inhibitory concentration (IC50) in assay [6] was determined as 23 µM.
With `CCCC[C@@H]1C[C@@H](O)[C@@H](O)[C@@H](O)CN1`, the concentration for half-maximal inhibition (IC50) in [9] came out at 3 µM.
`OC[C@H]1NC[C@H](O)[C@H](O)[C@@H](O)[C@@H]1O`: the inhibition constant Ki in [10] amounted to 2.2 µM.
For `NC(=O)N1c2ccccc2C/C(=N\O)c2ccccc21`, the Activity in [11] is given as 90%.
On to `C[C@@H]1CNC[C@@H](O)[C@H](O)[C@H]1O`, for which the Ki in [12] worked out at 2.5 µM. In assay [13], this molecule showed an inhibition of 100%.
In turn, `O=C(O)C[C@H]1NC[C@@H](O)[C@@H](O)[C@H](O)[C@H]1O` returned a half-inhibitory concentration (IC50) in assay [5] of 215 µM.
In the case of `O=C(O)C[C@@H]1NC[C@H](O)[C@H](O)[C@H](O)[C@H]1O`, the IC50 in [5] was determined as 279 µM.
Turning to `COC(=O)C1CCCCN(c2ccccn2)C1C(=O)OC` (stereo not drawn), the minimal inhibitory concentration (MIC) in assay [14], in assay [15], in assay [16], in [17], in [18] and in assay [19] was 1 to 16 µg/mL (≈ 3.42 to 54.7 µM) throughout. The same molecule displayed an MIC in [20] of 1 to 16 µg/mL (≈ 3.42 to 54.7 µM).
On to `CCC1CCCN(C)C(=O)[C+]1c1cccc(Oc2cc(C(C)(N)c3cncn3C)ccc2C#N)c1` (stereo not drawn), for which the concentration for half-maximal inhibition (IC50) in assay [21] amounted to 0.06 nM.
As for `COC(=O)C1CCCCN(c2ccc(Cl)cc2)C1C(=O)OC` (stereo not drawn), the minimal inhibitory concentration (MIC) in assay [14], in assay [15], in [16], in [17], in assay [18] and in assay [19] was 2 to 32 µg/mL (≈ 6.14 to 98.2 µM) throughout. The molecule further had an MIC in [20] of 2 to 32 µg/mL (≈ 6.14 to 98.2 µM).
